ChEMBL document CHEMBL5055671, “Targeting a Novel KRAS Binding Site: Application of One-Component Stapling of Small (5-6-mer) Peptides” (J Med Chem, 2021)
Numbered stars: 1 amine (or outer) side, 2 acyl side, 3 side chain; on linkers, the order of the positions; unused ones are H or OH. Bridge positions count the residues as written; N and C are the ends. Square brackets hold non-standard residues; d marks the D form. Peptide text beside a SMILES is read from it. ξ: configuration not given here. Nle(4-yne,6-yl) = O=C([C@H](CC#CC[*:3])N[*:1])[*:2]; ξIle = CC[C@H](C)C(N)C(=O)O

Each compound was assayed against GTPase KRas (Homo sapiens, UniProt P01116, G12V) (assay: Inhibition of alexa fluor 647-labeled kinase tracer 314 binding to biotinylated-KRAS G12V mutant (unknown origin) measured after 60 mins by HTRF competition binding assay). Conditions: not given.

| SMILES | pIC50 |
| --- | --- |
| CC(C)C[C@H](NC(=O)[C@H]1COCc2cn(nn2)CCCCC(=O)NCC(=O)N2CCC[C@H]2C(=O)N[C@@H](Cc2cccc3ccccc23)C(=O)N1)C(N)=O | < 4 |

Same assay, conditions: read-out: IC50

| SMILES | IC50 |
| --- | --- |
| CC(C)C[C@H](NC(=O)[C@@H]1COCc2cnnn2CCCCC(=O)NCC(=O)N2CCC[C@H]2C(=O)N[C@@H](CC(C)C)C(=O)N1)C(N)=O | 60 µM |
| CC(C)C[C@H](NC(=O)[C@@H]1COCc2cnnn2CCCCC(=O)N[C@H](C)C(=O)N2CCC[C@H]2C(=O)N[C@@H](Cc2cccc3ccccc23)C(=O)N1)C(N)=O | 25 µM |
| NC(=O)C[C@H](NC(=O)[C@@H]1COCc2cnnn2CCCCC(=O)NCC(=O)N2CCC[C@H]2C(=O)N[C@@H](Cc2cccc3ccccc23)C(=O)N1)C(N)=O | 48 µM |
| CC(C)C[C@H](CC(=O)[C@@H]1COCc2cnnn2CCCCC(=O)NCC(=O)N2CCC[C@H]2C(=O)C[C@@H](C)C(=O)C1)C(N)=O | 91 µM |
| CC(C)C[C@H](NC(=O)[C@@H]1COCc2cnnn2CCCCC(=O)NCC(=O)N2CCC[C@H]2C(=O)N[C@@H](Cc2cccnc2)C(=O)N1)C(N)=O | 41 µM |
| NC(=O)[C@@H](NC(=O)[C@@H]1COCc2cnnn2CCCCC(=O)NCC(=O)N2CCC[C@H]2C(=O)N[C@@H](Cc2cccc3ccccc23)C(=O)N1)C1CCCCC1 | 78 µM |
| CC(C)C[C@H](NC(=O)[C@@H]1COCc2cnnn2CCCCC(=O)NCC(=O)N2CCC[C@H]2C(=O)N[C@@H](c2ccccc2)C(=O)N1)C(N)=O | > 100 µM |
| CC(C)C[C@H](NC(=O)[C@H]1CCCc2cnnn2CCCCC(=O)NCC(=O)N2CCC[C@H]2C(=O)N[C@@H](Cc2cccc3ccccc23)C(=O)N1)C(N)=O | 19 µM |
| CC(C)C[C@H](NC(=O)[C@@H]1COCc2cnnn2CCCCC(=O)NCC(=O)NC(C)(C)C(=O)N[C@@H](Cc2cccc3ccccc23)C(=O)N1)C(N)=O | 20 µM |
| CC(C)C[C@H](NC(=O)[C@@H]1COCc2cnnn2CCCCC(=O)NCC(=O)N2CCC[C@H]2C(=O)N[C@@H](Cc2cccs2)C(=O)N1)C(N)=O | 53 µM |
| CC(C)C[C@H](NC(=O)[C@@H]1COCc2cnnn2CCCCC(=O)N[C@@H](CC(=O)O)C(=O)N2CCC[C@H]2C(=O)N[C@@H](Cc2cccc3ccccc23)C(=O)N1)C(N)=O | 66 µM |
| CC(C)C[C@H](NC(=O)[C@@H]1COCc2cnnn2CCCCC(=O)NCC(=O)N2Cc3ccccc3C[C@H]2C(=O)N[C@@H](Cc2cccc3ccccc23)C(=O)N1)C(N)=O | 5.8 µM |
| CC(C)C[C@H](NC(=O)[C@@H]1COCc2cnnn2CCCCC(=O)NCC(=O)N2CC[C@H]2C(=O)N[C@@H](Cc2cccc3ccccc23)C(=O)N1)C(N)=O | 32 µM |
| CC(C)C[C@H](NC(=O)[C@@H]1COCc2cnnn2CCCCC(=O)NCC(=O)N2CCC[C@H]2C(=O)N[C@@H](Cc2ccccc2)C(=O)N1)C(N)=O | > 38 µM |
| NC(=O)CC[C@H](NC(=O)[C@@H]1COCc2cnnn2CCCCC(=O)NCC(=O)N2CCC[C@H]2C(=O)N[C@@H](Cc2cccc3ccccc23)C(=O)N1)C(N)=O | 50 µM |
| NC(=O)[C@H](CC1CCCCC1)NC(=O)[C@@H]1COCc2cnnn2CCCCC(=O)NCC(=O)N2CCC[C@H]2C(=O)N[C@@H](Cc2cccc3ccccc23)C(=O)N1 | 100 µM |
| CC(=O)N[C@@H](CC(=O)O)C(=O)N[C@H]1CCCn2nncc2COC[C@H](C(=O)N[C@@H](CC(C)C)C(N)=O)NC(=O)[C@H](Cc2cccc3ccccc23)NC(=O)[C@@H]2CCCN2C(=O)CNC1=O | 38 µM |
| CC(C)C[C@H](NC(=O)[C@@H]1COCc2cnnn2CCCCC(=O)NCC(=O)N2CCC[C@H]2C(=O)N[C@H](Cc2ccccc2)C(=O)N1)C(N)=O | > 82 µM |
| CC(C)C[C@H](NC(=O)[C@H]1COCc2cn(nn2)CCCCC(=O)NCC(=O)N2CCC[C@H]2C(=O)N[C@@H](Cc2cccc3ccccc23)C(=O)N1)C(N)=O | > 100 µM |
| CCCC[C@H](NC(=O)[C@@H]1COCc2cnnn2CCCCC(=O)NCC(=O)N2CCC[C@H]2C(=O)N[C@@H](Cc2cccc3ccccc23)C(=O)N1)C(N)=O | 100 µM |
| CC(C)C[C@H](NC(=O)[C@@H]1COCc2cnnn2CCCCC(=O)NCC(=O)N2CCC[C@H]2C(=O)N[C@@H](Cc2ccc3ccccc3c2)C(=O)N1)C(N)=O | 9.5 µM |
| CC(=O)N[C@@H](Cc1cccc2ccccc12)C(=O)N[C@@H](COCc1cnnn1CCCCC(=O)NCC(N)=O)C(=O)N[C@@H](CC(C)C)C(N)=O | 38 µM |
| CC(C)C[C@H](NC(=O)[C@@H]1COCc2cnnn2CCCCC(=O)N[C@H](CC(=O)O)C(=O)N2CCC[C@H]2C(=O)N[C@@H](Cc2cccc3ccccc23)C(=O)N1)C(N)=O | 77 µM |
| CC(=O)N[C@@H](CCC(=O)O)C(=O)N[C@H]1CCCn2nncc2COC[C@H](C(=O)N[C@@H](CC(C)C)C(N)=O)NC(=O)[C@H](Cc2cccc3ccccc23)NC(=O)[C@@H]2CCCN2C(=O)CNC1=O | 93 µM |
| CC(C)C[C@H](NC(=O)[C@@H]1COCc2cnnn2CCCCC(=O)NCC(=O)N2CCC[C@H]2C(=O)N[C@@H](CC2CCCCC2)C(=O)N1)C(N)=O | 100 µM |
| CCCC[C@@H]1NC(=O)[C@@H]2CCCN2C(=O)CNC(=O)CCCCn2nncc2COC[C@@H](C(=O)N[C@@H](CC(C)C)C(N)=O)NC1=O | 48 µM |

| SMILES | IC50 |
| --- | --- |
| CC(C)C[C@H](NC(=O)[C@@H]1COCc2cnnn2CCCCCCCC(=O)N2CCC[C@H]2C(=O)N[C@@H](Cc2cccc3ccccc23)C(=O)N1)C(N)=O | 81 µM |
| CC(C)C[C@@H](C(N)=O)N(C)C(=O)[C@@H]1COCc2cnnn2CCCCC(=O)NCC(=O)N2CCC[C@H]2C(=O)N[C@@H](Cc2cccc3ccccc23)C(=O)N1 | 26 µM |
| CC(C)C[C@H](NC(=O)[C@@H]1COCc2cnnn2CCCCC(=O)N[C@H](CCC(=O)O)C(=O)N2CCC[C@H]2C(=O)N[C@@H](Cc2cccc3ccccc23)C(=O)N1)C(N)=O | 100 µM |
| CC(C)C[C@H](NC(=O)[C@H]1COCc2cnnn2CCCCC(=O)NCC(=O)N2CCC[C@H]2C(=O)N[C@@H](Cc2cccc3ccccc23)C(=O)N1)C(=O)N[C@@H](C)C(=O)N1CCC[C@H]1C(N)=O | 46 µM |
| CC(C)C[C@H](NC(=O)[C@@H]1COCc2cnnn2CCCCCC(=O)N2CCC[C@H]2C(=O)N[C@@H](Cc2cccc3ccccc23)C(=O)N1)C(N)=O | 12 µM |
| CC(C)C[C@H](NC(=O)[C@@H]1COCc2cnnn2CCCCC(=O)NCC(=O)N(C)[C@@H](C(C)C)C(=O)N[C@@H](Cc2cccc3ccccc23)C(=O)N1)C(N)=O | 100 µM |
| CC(C)C[C@H](NC(=O)[C@@H]1COCc2cnnn2CCCCC(=O)N[C@@H](CCC(=O)O)C(=O)N2CCC[C@H]2C(=O)N[C@@H](Cc2cccc3ccccc23)C(=O)N1)C(N)=O | 49 µM |
| CC(C)C[C@H](NC(=O)[C@@H]1COCc2cnnn2CCCCC(=O)N[C@@H](C)C(=O)N2CCC[C@H]2C(=O)N[C@@H](Cc2cccc3ccccc23)C(=O)N1)C(N)=O | 9.7 µM |
| CC[C@H](C)C1NC(=O)[C@@H]2CCCN2C(=O)[C@H](Cc2ccc(O)cc2)NC(=O)[C@@H](NC(=O)[C@H](CC(=O)O)NC(=O)[C@H](Cc2ccc(O)cc2)NC(=O)[C@H](Cc2ccccc2)NC(=O)[C@H](Cc2c[nH]cn2)NC(=O)[C@@H](N)Cc2ccccc2)CC#CCSC[C@@H](C(=O)N[C@@H](CC(C)C)C(=O)N[C@H](C(=O)N2CCC[C@H]2C(=O)N2CCC[C@H]2C(N)=O)[C@@H](C)CC)NC1=O (stereo partly drawn) (H-FHFYD[Nle(4-yne,6-yl)]YP[ξIle]CLIPP-NH2; thioether 6-10) | 0.023 µM |
| CC(C)C[C@H](NC(=O)[C@@H]1COCc2cnnn2CCCCCCCCCC(=O)N2CCC[C@H]2C(=O)N[C@@H](Cc2cccc3ccccc23)C(=O)N1)C(N)=O | 28 µM |
| NC(=O)[C@H](CC1CC1)NC(=O)[C@@H]1COCc2cnnn2CCCCC(=O)NCC(=O)N2CCC[C@H]2C(=O)N[C@@H](Cc2cccc3ccccc23)C(=O)N1 | 29 µM |
| CC(C)C[C@H](NC(=O)[C@@H]1COCc2cnnn2CCCCC(=O)NCC(=O)N2C[C@H](O)C[C@H]2C(=O)N[C@@H](Cc2cccc3ccccc23)C(=O)N1)C(N)=O | 95 µM |
| CC(C)C[C@H](NC(=O)[C@H]1Cn2nncc2CCCC(=O)NCC(=O)N2CCC[C@H]2C(=O)N[C@@H](Cc2cccc3ccccc23)C(=O)N1)C(N)=O | 31 µM |
| CC(C)C[C@H](NC(=O)[C@H]1Cc2cnnn2CCCCC(=O)NCC(=O)N2CCC[C@H]2C(=O)N[C@@H](Cc2cccc3ccccc23)C(=O)N1)C(N)=O | 65 µM |
| CC(C)C[C@H](NC(=O)[C@@H]1COCc2cnnn2CCCCC(=O)NCC(=O)N2CC[C@@H](O)[C@H]2C(=O)N[C@@H](Cc2cccc3ccccc23)C(=O)N1)C(N)=O | 70 µM |
| CC(C)C[C@H](NC(=O)[C@@H]1COCc2cnnn2CCCCC(=O)NCC(=O)N2CCC[C@H]2C(=O)N[C@@H](Cc2ccccc2Cl)C(=O)N1)C(N)=O | > 100 µM |
| CC(=O)N[C@@H](CC(=O)O)C(=O)N[C@H]1CCCn2nncc2COC[C@@H](C(=O)N[C@@H](CC(C)C)C(=O)N[C@@H](C)C(=O)N2CCC[C@H]2C(N)=O)NC(=O)[C@H](Cc2cccc3ccccc23)NC(=O)[C@@H]2CCCN2C(=O)CNC1=O | 40 µM |
| CC(C)C[C@H](NC(=O)[C@@H]1COCc2cnnn2CCCCC(=O)N2CCC[C@H]2C(=O)N[C@@H](Cc2cccc3ccccc23)C(=O)N1)C(N)=O | 48 µM |
| CC(C)C[C@H](NC(=O)[C@@H]1COCc2cnnn2CCCCC(=O)NCC(=O)N2CCC[C@H]2C(=O)N[C@@H](Cc2ccc(Cl)cc2)C(=O)N1)C(N)=O | > 74 µM |
| CC(C)C[C@H](NC(=O)[C@@H]1COCc2cnnn2CCCCC(=O)NCC(=O)N2CCCCC[C@H]2C(=O)N[C@@H](Cc2cccc3ccccc23)C(=O)N1)C(N)=O | 55 µM |
| CC(C)C[C@H](NC(=O)[C@H]1CCn2nncc2CCCC(=O)NCC(=O)N2CCC[C@H]2C(=O)N[C@@H](Cc2cccc3ccccc23)C(=O)N1)C(N)=O | 13 µM |
| CC(C)C[C@H](NC(=O)[C@@H]1COCc2cnnn2CCCCC(=O)NCC(=O)N2CCC[C@H]2C(=O)N[C@@H](Cc2c[nH]c3ccccc23)C(=O)N1)C(N)=O | 18 µM |
| CC(=O)N[C@@H](CCC(=O)O)C(=O)N[C@H]1CCCn2nncc2COC[C@@H](C(=O)N[C@@H](CC(C)C)C(=O)N[C@@H](C)C(=O)N2CCC[C@H]2C(N)=O)NC(=O)[C@H](Cc2cccc3ccccc23)NC(=O)[C@@H]2CCCN2C(=O)CNC1=O | > 83 µM |
| CC(C)C[C@H](NC(=O)[C@@H]1COCc2cnnn2CCCCC(=O)NCC(=O)N2CCC[C@H]2C(=O)N[C@@H](CC2CC2)C(=O)N1)C(N)=O | 32 µM |
| C[C@H](NC(=O)[C@@H]1COCc2cnnn2CCCCC(=O)NCC(=O)N2CCC[C@H]2C(=O)N[C@@H](Cc2cccc3ccccc23)C(=O)N1)C(N)=O | 37 µM |

Same assay, conditions: read-out: pIC50 (converted)

| SMILES | IC50 |
| --- | --- |
| CC(=O)N[C@@H](CCC(=O)O)C(=O)N[C@H]1CCCn2nncc2COC[C@@H](C(=O)N[C@@H](CC(C)C)C(=O)N[C@@H](C)C(=O)N2CCC[C@H]2C(N)=O)NC(=O)[C@H](Cc2cccc3ccccc23)NC(=O)[C@@H]2CCCN2C(=O)CNC1=O | > 79.4 µM |
